Molecular target: Human Factor D (Homo sapiens (Human), UniProt P00746)
Assay: Human Factor D Assay
Format: biochemical
Settings: Human Factor D, Table 3; read-out: IC50
Outline: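 First, compound at various concentrations is mixed with 80 nM (final) human serum Factor D in 50 mM Tris, 1M NaCl, pH 7.5 for 5 min at room temperature.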

Human Factor D, sequence (P00746 26-253): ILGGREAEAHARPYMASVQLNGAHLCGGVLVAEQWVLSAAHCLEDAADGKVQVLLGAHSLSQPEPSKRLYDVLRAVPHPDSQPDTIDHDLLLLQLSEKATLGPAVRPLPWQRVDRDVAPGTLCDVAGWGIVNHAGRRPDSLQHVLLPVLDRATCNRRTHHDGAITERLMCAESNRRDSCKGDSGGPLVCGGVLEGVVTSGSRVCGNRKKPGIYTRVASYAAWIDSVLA

In the case of `CC(=O)c1nn(CC(=O)N2C[C@H](F)C[C@H]2C(=O)Nc2cccc(Br)n2)c2ccc(-c3cnc(C(N)=O)nc3)cc12` [Compound 599, 5-(3-Acetyl-1-(2-((2S,4R)-2-((6-bromopyridin-2-yl)carbamoyl)-4-fluoropyrrolidin-1-yl)-2-oxoethyl)-1H-indazol-5-yl)pyrimidine-2-carboxamide], the IC50 is reported as under 1000 nM.

`CC(=O)c1nn(CC(=O)N2C[C@H](F)C[C@H]2C(=O)Nc2cccc(-c3ncco3)n2)c2ccc(-c3cnc(C)nc3)cc12` [Compound 600, (2S,4R)-1-(2-(3-Acetyl-5-(2-methylpyrimidin-5-yl)-1H-indazol-1-yl)acetyl)-4-fluoro-N-(6-(oxazol-2-yl)pyridin-2-yl)pyrrolidine-2-carboxamide] was tested, and the IC50 was under 1000 nM.

In the case of `CC(=O)c1nn(CC(=O)N2C[C@H](F)C[C@H]2C(=O)Nc2nc(OCC(F)(F)F)ccc2C)c2ccc(-c3cnc(C)nc3)cc12` [Compound 601, (2S,4R)-1-(2-(3-Acetyl-5-(2-methylpyrimidin-5-yl)-1H-indazol-1-yl)acetyl)-4-fluoro-N-(3-methyl-6-(2,2,2-trifluoroethoxy)pyridin-2-yl)pyrrolidine-2-carboxamide], the IC50 is reported as under 1000 nM.

With `CC(=O)c1nn(CC(=O)N2C[C@H](F)C[C@H]2C(=O)Nc2nc(C(C)(F)F)ccc2C)c2ccc(-c3cnc(C)nc3)cc12` [Compound 602, (2S,4R)-1-(2-(3-Acetyl-5-(2-methylpyrimidin-5-yl)-1H-indazol-1-yl)acetyl)-N-(6-(1,1-difluoroethyl)-3-methylpyridin-2-yl)-4-fluoropyrrolidine-2-carboxamide] the IC50 was under 1000 nM.

Compound `CC(=O)c1nn(CC(=O)N2[C@@H]3C[C@@H]3C[C@H]2C(=O)Nc2nc(Br)ccc2C2CC2)c2ccc(-c3cnc(C)nc3)cc12` [Compound 603, (1R,3S,5R)-2-(2-(3-Acetyl-5-(2-methylpyrimidin-5-yl)-1H-indazol-1-yl)acetyl)-N-(6-bromo-3-cyclopropyl-pyridin-2-yl)-2-azabicyclo[3.1.0]hexane-3-carboxamide] has an IC50 of under 1000 nM.

For `CC(=O)c1nn(CC(=O)N2C[C@H](F)C[C@H]2C(=O)Nc2cccc(Br)n2)c2ccc(-c3cnc(O)nc3)cc12` [Compound 604, (2S,4R)-1-(2-(3-Acetyl-5-(2-hydroxypyrimidin-5-yl)-1H-indazol-1-yl)acetyl)-N-(6-bromopyridin-2-yl)-4-fluoropyrrolidine-2-carboxamide], the IC50 was under 1000 nM.

For `CC(=O)c1nn(CC(=O)N2C[C@@H]3C[C@@H]3[C@H]2C(=O)Nc2nc(Br)ccc2C)c2ccc(-c3cnc(C)nc3)cc12` [Compound 605, (1S,2S,5R)-3-(2-(3-Acetyl-5-(2-methylpyrimidin-5-yl)-1H-indazol-1-yl)acetyl)-N-(6-bromo-3-methylpyridin-2-yl)-3-azabicyclo[3.1.0]hexane-2-carboxamide], the IC50 was under 1000 nM.

`COCc1ccc(Br)nc1NC(=O)[C@@H]1C[C@@H](F)CN1C(=O)Cn1nc(C(C)=O)c2cc(-c3cnc(C)nc3)ccc21` [Compound 606, (2S,4R)-1-(2-(3-Acetyl-5-(2-methylpyrimidin-5-yl)-1H-indazol-1-yl)acetyl)-N-(6-bromo-3-(methoxymethyl)pyridin-2-yl)-4-fluoropyrrolidine-2-carboxamide] showed an IC50 of under 1000 nM.

`COC(=O)c1ccc(Br)nc1NC(=O)[C@@H]1C[C@@H](F)CN1C(=O)Cn1nc(C(C)=O)c2cc(-c3cnc(C)nc3)ccc21` [Compound 607, Methyl 2-((2S,4R)-1-(2-(3-Acetyl-5-(2-methylpyrimidin-5-yl)-1H-indazol-1-yl)acetyl)-4-fluoropyrrolidine-2-carboxamido)-6-bromonicotinate] was tested, and the IC50 was under 1000 nM.

`CC(=O)c1nn(CC(=O)N2C[C@H](F)C[C@H]2C(=O)Nc2cccc(Br)n2)c2c(C)cc(-c3cnc(C)nc3)cc12` [Compound 608, (2S,4R)-1-(2-(3-Acetyl-7-methyl-5-(2-methylpyrimidin-5-yl)-1H-indazol-1-yl)acetyl)-N-(6-bromopyridin-2-yl)-4-fluoropyrrolidine-2-carboxamide] was tested, and the IC50 was under 1000 nM.

`CC(=O)c1nn(CC(=O)N2C[C@H](F)C[C@H]2C(=O)Nc2cccc(Br)n2)c2cc(C)c(-c3cnc(C)nc3)cc12` [Compound 609, (2S,4R)-1-(2-(3-Acetyl-6-methyl-5-(2-methylpyrimidin-5-yl)-1H-indazol-1-yl)acetyl)-N-(6-bromopyridin-2-yl)-4-fluoropyrrolidine-2-carboxamide] showed an IC50 of under 1000 nM.

`CC(=O)c1nn(CC(=O)N2[C@@H]3C[C@@H]3C[C@H]2C(=O)NC2CCN(CC(F)(F)F)C2)c2ccc(-c3cnc(C)nc3)cc12` (stereo partly drawn) [Compound 611, (1R, 3S, 5R)-2-(2-(3-acetyl-5-(2-methylpyrimidin-5-yl)-1H-indazol-1-yl)acetyl)-N-(1-(2,2,2-trifluoroethyl)pyrrolidin-3-yl)-2-azabicyclo [3.1.0] hexane-3-carboxamide] showed an IC50 of under 1000 nM.

`CC(=O)c1nn(CC(=O)N2C[C@H](F)C[C@H]2C(=O)NCC23CC4CC(CC(C4)C2)C3)c2ccc(-c3cnc(C)nc3)cc12` [Compound 612, (2S,4R)-1-(2-(3-Acetyl-5-(2-methylpyrimidin-5-yl)-1H-indazol-1-yl)acetyl)-N-(((3S,5S,7S)-adamantan-1-yl)methyl)-4-fluoropyrrolidine-2-carboxamide] showed an IC50 of under 1000 nM.

`CC(=O)c1nn(CC(=O)N2C[C@H](F)C[C@H]2C(=O)Nc2nc(Br)ccc2C(=O)O)c2ccc(-c3cnc(C)nc3)cc12` [Compound 615, 2-((2S,4R)-1-(2-(3-Acetyl-5-(2-methylpyrimidin-5-yl)-1H-indazol-1-yl)acetyl)-4-fluoropyrrolidine-2-carboxamido)-6-bromonicotinic acid] gave an IC50 of under 1000 nM.

With `CC(=O)c1nn(CC(=O)N2[C@H](C(=O)Nc3nc(Br)ccc3C3CC3)C[C@@]3(C)C[C@@H]23)c2ccc(-c3cnc(C)nc3)cc12` [Compound 616, (1R,3S,5R)-2-(2-(3-Acetyl-5-(2-methylpyrimidin-5-yl)-1H-indazol-1-yl)acetyl)-N-(6-bromo-3-cyclopropyl-pyridin-2-yl)-5-methyl-2-azabicyclo[3.1.0]hexane-3-carboxamide] the IC50 was under 1000 nM.

`CC(=O)c1nn(CC(=O)N2C3CC[C@@H](C3)[C@H]2C(=O)Nc2nc(Br)ccc2C)c2ccc(-c3cnc(C)nc3)cc12` [Compound 617, (3S,4S)-2-(2-(3-Acetyl-5-(2-methylpyrimidin-5-yl)-1H-indazol-1-yl)acetyl)-N-(6-bromo-3-methylpyridin-2-yl)-2-azabicyclo[2.2.1]heptane-3-carboxamide] showed an IC50 of under 1000 nM.

In the case of `CC(=O)c1nn(CC(=O)N2[C@H](C(=O)Nc3nc(Br)ccc3C)C[C@@]3(C)C[C@@H]23)c2ccc(-c3cnc(N)nc3)cc12` [Compound 620, (1R,3S,5R)-2-(2-(3-Acetyl-5-(2-aminopyrimidin-5-yl)-1H-indazol-1-yl)acetyl)-N-(6-bromo-3-methylpyridin-2-yl)-5-methyl-2-azabicyclo[3.1.0]hexane-3-carboxamide], the IC50 is reported as under 1000 nM.

Compound `CC(=O)c1nn(CC(=O)N2[C@H](C(=O)NCC(F)=C(C)C)C[C@@]3(C)C[C@@H]23)c2ccc(-c3cnc(C)nc3)cc12` [Compound 621, (1R,3S,5R)-2-(2-(3-acetyl-5-(2-methylpyrimidin-5-yl)-1H-indazol-1-yl)acetyl)-N-(2-fluoro-3-methylbut-2-en-1-yl)-5-methyl-2-azabicyclo[3.1.0] hexane-3-carboxamide] has an IC50 of under 1000 nM.

`CC(=O)c1nn(CC(=O)N2[C@H](C(=O)N[C@@H](C)C(F)=C(C)C)C[C@@]3(C)C[C@@H]23)c2ccc(-c3cnc(C)nc3)cc12` [Compound 622, (1R,3S,5R)-2-(2-(3-acetyl-5-(2-methylpyrimidin-5-yl)-1H-indazol-1-yl)acetyl)-N-((S)-3-fluoro-4-methylpent-3-en-2-yl)-5-methyl-2-azabicyclo[3.1.0] hexane-3-carboxamide] showed an IC50 of under 1000 nM.

`CC(=O)c1nn(CC(=O)N2[C@H](C(=O)N[C@H](C)C(F)=C(C)C)C[C@@]3(C)C[C@@H]23)c2ccc(-c3cnc(C)nc3)cc12` [Compound 623, (1R,3S,5R)-2-(2-(3-acetyl-5-(2-methylpyrimidin-5-yl)-1H-indazol-1-yl)acetyl)-N-((R)-3-fluoro-4-methylpent-3-en-2-yl)-5-methyl-2-azabicyclo[3.1.0] hexane-3-carboxamide] showed an IC50 of under 1000 nM.

`CC(=O)c1nn(CC(=O)N2[C@H](C(=O)Nc3cccc(OC(F)(F)F)n3)C[C@@]3(C)C[C@@H]23)c2ccc(-c3cnc(C)nc3)cc12` [Compound 624, (1R,3S,5R)-2-(2-(3-acetyl-5-(2-methylpyrimidin-5-yl)-1H-indazol-1-yl)acetyl)-5-methyl-N-(6-(trifluoromethoxy)pyridin-2-yl)-2-azabicyclo[3.1.0] hexane-3-carboxamide] showed an IC50 of under 1000 nM.

Work on `CC(=O)c1nn(CC(=O)N2[C@H](C(=O)Nc3ccn(CC(F)(F)F)n3)C[C@@]3(C)C[C@@H]23)c2ccc(-c3cnc(C)nc3)cc12` [Compound 625] yielded an IC50 of under 1000 nM.

For `CC(=O)c1nn(CC(=O)N2[C@H](C(=O)Nc3cccc(OC(F)(F)F)c3F)C[C@@]3(C)C[C@@H]23)c2ccc(-c3cnc(C)nc3)cc12` [Compound 630, (1R,3S,5R)-2-(2-(3-acetyl-5-(2-methylpyrimidin-5-yl)-1H-indazol-1-yl)acetyl)-N-(2-fluoro-3-(trifluoromethoxy)phenyl)-5-methyl-2-azabicyclo[3.1.0] hexane-3-carboxamide], the IC50 was under 1000 nM.

`CC(=O)c1nn(CC(=O)N2[C@H](C(=O)Nc3cccc(C(F)(F)F)n3)C[C@@]3(C)C[C@@H]23)c2ccc(-c3cnc(C)nc3)cc12` [Compound 631, (1R,3S,5R)-2-(2-(3-acetyl-5-(2-methylpyrimidin-5-yl)-1H-indazol-1-yl)acetyl)-5-methyl-N-(6-(trifluoromethyl)pyridin-2-yl)-2-azabicyclo[3.1.0] hexane-3-carboxamide] was tested, and the IC50 was under 1000 nM.

For `COc1ncc(-c2ccc3c(c2)c(C(C)=O)nn3CC(=O)N2[C@H](C(=O)Nc3nc(Br)ccc3C)C[C@@]3(C)C[C@@H]23)cn1` [Compound 632, (1R,3S,5R)-2-(2-(3-Acetyl-5-(2-methoxypyrimidin-5-yl)-1H-indazol-1-yl)acetyl)-N-(6-bromo-3-methylpyridin-2-yl)-5-methyl-2-azabicyclo[3.1.0]hexane-3-carboxamide], the IC50 was under 1000 nM.

Reference: US10287301B2 (Achillion Pharmaceuticals, Inc., priority 2015, dated 2019)
